According to ChEMBL document CHEMBL3991601, “The target landscape of clinical kinase drugs” (Science, 2017):
Active and inactive are the calls of the source. Cut-off read from the data, not from the text of the source, for most assays here: actives have a measured Kd and inactives only a lower limit.

What was measured:
[1] = biological target: Tyrosine-protein kinase ABL1 (Homo sapiens, UniProt P00519)
[2] = biological target: Cyclin-dependent kinase 13 (Homo sapiens, UniProt Q14004)
[3] = biological target: T1, Eukaryotic translation initiation factor 5B (Homo sapiens, UniProt O60841)
T1 sequence (O60841 whole entry): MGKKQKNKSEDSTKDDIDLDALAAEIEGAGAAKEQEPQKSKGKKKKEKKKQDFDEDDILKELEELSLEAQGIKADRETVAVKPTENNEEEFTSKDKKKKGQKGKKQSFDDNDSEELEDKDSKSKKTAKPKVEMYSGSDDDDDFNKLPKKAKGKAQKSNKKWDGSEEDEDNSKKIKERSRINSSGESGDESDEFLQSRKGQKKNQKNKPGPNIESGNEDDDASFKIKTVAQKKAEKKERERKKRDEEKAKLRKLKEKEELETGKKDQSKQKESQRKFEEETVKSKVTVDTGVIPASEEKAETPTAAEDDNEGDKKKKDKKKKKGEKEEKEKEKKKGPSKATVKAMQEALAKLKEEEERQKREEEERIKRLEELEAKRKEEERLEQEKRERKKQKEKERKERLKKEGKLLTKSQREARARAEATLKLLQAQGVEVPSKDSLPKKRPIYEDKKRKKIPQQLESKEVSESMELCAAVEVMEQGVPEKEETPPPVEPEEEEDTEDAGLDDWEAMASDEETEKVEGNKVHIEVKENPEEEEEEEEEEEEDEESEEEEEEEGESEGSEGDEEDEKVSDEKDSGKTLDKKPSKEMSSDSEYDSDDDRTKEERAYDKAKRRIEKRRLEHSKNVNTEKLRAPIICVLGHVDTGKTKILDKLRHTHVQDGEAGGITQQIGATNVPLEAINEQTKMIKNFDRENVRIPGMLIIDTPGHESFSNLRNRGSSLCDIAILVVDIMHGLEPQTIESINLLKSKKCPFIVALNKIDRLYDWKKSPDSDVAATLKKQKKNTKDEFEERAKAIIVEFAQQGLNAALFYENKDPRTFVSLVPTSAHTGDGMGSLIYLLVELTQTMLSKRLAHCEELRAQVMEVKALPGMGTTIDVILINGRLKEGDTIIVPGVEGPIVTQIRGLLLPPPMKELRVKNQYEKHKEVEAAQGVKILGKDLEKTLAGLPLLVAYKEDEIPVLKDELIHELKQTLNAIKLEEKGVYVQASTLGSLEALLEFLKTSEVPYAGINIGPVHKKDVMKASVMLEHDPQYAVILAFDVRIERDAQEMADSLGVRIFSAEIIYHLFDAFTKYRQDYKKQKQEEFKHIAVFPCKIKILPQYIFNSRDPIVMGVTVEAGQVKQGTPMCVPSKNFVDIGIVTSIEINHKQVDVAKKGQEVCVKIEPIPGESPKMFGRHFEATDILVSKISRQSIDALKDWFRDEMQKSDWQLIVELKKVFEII

[4] = biological target: T2, Phenylalanine--tRNA ligase beta subunit (Homo sapiens, UniProt Q9NSD9)
T2 sequence (Q9NSD9 whole entry): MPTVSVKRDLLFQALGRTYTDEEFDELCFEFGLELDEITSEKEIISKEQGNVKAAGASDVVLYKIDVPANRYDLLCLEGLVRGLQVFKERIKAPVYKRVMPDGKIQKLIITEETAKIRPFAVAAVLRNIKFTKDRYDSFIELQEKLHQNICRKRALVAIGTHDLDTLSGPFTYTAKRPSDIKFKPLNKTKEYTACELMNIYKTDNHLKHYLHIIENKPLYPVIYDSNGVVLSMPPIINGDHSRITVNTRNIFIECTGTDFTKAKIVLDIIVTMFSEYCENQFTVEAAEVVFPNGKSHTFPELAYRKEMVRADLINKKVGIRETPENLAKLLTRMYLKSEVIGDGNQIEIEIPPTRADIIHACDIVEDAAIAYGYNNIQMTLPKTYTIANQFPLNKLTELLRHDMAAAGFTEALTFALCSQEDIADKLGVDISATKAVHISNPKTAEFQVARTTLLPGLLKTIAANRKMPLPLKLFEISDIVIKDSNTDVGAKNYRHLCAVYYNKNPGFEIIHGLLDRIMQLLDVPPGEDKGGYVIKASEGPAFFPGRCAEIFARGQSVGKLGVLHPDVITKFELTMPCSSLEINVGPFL

[5] = biological target: T3, Inhibitor of nuclear factor kappa-B kinase subunit epsilon (Homo sapiens, UniProt Q14164)
T3 sequence (Q14164 whole entry): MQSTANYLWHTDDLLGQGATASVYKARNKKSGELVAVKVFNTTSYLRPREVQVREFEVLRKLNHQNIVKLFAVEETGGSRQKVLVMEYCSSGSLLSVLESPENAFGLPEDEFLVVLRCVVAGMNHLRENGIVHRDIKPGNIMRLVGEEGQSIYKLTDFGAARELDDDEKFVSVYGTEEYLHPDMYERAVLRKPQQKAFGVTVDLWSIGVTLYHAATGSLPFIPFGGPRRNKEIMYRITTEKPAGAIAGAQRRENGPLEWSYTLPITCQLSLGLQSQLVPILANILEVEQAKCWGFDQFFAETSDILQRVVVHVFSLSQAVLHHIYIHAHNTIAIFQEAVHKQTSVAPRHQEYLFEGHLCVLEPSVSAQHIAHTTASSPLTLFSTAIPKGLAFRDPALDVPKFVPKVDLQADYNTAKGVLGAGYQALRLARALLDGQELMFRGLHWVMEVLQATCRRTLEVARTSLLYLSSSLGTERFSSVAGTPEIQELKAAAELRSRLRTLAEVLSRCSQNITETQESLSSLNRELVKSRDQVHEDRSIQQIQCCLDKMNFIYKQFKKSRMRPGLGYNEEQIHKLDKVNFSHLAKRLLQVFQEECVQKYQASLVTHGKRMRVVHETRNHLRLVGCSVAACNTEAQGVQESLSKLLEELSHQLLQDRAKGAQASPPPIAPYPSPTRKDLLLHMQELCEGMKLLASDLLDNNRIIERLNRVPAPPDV

[6] = biological target: Mitogen-activated protein kinase 7 (Homo sapiens, UniProt Q13164)
[7] = biological target: Mitogen-activated protein kinase 8 (Homo sapiens, UniProt P45983)
[8] = biological target: Rho-associated protein kinase 1 (Homo sapiens, UniProt Q13464)
[9] = biological target: TRAF2 and NCK-interacting protein kinase (Homo sapiens, UniProt Q9UKE5)
Activated CDC42 kinase 1 = Activated CDC42 kinase 1 (Homo sapiens, UniProt Q07912)
Note: in the data inactive means no Kd found up to 30 µM.

Chain of Rho-associated protein kinase 1 (Q13464 whole entry): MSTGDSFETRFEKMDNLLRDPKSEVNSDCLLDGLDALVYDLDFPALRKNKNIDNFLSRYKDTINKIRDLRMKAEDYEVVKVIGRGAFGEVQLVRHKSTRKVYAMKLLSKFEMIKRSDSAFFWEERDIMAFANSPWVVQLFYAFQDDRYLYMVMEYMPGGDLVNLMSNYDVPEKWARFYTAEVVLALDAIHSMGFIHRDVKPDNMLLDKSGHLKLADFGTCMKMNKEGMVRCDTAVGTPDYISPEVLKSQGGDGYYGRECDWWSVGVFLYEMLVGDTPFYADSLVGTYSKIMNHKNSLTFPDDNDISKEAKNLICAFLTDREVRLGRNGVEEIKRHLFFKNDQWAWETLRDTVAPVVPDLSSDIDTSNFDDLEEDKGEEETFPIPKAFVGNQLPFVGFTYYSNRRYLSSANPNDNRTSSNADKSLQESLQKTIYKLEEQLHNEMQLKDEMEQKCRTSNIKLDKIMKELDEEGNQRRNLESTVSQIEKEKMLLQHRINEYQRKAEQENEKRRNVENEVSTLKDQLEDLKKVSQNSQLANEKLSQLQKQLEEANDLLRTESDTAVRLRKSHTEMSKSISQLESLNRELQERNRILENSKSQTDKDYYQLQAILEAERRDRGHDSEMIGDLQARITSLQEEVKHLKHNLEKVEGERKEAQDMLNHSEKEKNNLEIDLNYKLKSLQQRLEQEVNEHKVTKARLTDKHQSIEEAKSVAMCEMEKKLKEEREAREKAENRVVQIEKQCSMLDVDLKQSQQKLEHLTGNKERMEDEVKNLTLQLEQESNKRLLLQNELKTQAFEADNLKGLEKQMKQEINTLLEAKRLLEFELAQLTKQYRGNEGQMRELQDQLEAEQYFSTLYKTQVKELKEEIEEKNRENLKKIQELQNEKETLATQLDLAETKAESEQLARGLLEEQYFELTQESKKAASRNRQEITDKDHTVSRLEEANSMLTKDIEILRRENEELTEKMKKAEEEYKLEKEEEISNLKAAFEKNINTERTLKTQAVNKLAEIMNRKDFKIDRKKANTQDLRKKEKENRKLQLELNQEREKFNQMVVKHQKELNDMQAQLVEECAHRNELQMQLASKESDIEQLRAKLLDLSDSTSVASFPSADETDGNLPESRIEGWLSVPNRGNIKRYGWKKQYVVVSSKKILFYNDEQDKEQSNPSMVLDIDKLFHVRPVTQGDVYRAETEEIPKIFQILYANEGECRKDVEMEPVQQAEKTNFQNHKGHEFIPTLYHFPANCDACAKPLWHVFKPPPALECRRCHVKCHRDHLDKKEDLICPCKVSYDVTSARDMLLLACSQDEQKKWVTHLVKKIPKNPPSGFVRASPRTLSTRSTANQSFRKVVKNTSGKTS
Chain of Cyclin-dependent kinase 13 (Q14004 whole entry): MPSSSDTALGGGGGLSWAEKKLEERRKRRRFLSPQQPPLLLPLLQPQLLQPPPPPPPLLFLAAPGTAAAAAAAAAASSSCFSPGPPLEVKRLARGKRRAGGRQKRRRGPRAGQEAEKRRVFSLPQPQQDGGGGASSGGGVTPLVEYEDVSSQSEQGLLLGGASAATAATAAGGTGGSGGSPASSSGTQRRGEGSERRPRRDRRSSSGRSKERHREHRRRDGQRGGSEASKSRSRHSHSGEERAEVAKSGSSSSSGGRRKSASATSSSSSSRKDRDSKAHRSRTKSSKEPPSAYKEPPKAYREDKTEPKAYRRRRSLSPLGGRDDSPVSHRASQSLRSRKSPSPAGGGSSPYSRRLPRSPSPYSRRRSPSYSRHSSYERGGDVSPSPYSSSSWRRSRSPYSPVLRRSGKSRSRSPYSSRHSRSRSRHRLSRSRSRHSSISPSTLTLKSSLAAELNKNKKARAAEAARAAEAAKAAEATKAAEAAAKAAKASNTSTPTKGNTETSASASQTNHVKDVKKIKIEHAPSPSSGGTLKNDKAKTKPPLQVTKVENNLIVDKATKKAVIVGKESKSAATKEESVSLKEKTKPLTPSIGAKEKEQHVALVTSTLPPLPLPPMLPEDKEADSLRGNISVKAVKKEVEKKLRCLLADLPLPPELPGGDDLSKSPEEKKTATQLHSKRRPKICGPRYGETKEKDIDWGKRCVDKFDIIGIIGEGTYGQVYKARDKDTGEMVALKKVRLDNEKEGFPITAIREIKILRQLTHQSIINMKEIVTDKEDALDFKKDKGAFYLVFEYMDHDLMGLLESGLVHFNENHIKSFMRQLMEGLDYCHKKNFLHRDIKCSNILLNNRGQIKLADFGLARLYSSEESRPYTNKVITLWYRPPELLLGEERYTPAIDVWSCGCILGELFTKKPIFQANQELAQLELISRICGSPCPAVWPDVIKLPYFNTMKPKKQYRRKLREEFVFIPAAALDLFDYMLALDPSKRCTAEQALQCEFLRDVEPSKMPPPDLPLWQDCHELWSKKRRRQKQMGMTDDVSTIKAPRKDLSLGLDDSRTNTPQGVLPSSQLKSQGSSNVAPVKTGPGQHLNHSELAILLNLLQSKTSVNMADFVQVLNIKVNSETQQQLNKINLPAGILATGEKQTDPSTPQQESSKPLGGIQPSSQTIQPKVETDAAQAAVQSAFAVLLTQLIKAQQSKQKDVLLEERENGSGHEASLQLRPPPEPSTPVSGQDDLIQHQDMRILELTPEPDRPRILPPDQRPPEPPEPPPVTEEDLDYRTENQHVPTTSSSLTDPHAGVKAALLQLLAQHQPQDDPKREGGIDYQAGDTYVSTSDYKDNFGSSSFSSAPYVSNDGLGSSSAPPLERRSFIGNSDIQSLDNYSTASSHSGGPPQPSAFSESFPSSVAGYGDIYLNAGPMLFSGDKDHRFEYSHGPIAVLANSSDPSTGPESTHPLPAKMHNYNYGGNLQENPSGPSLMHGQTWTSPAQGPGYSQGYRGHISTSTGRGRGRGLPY
Chain of Tyrosine-protein kinase ABL1 (P00519 whole entry): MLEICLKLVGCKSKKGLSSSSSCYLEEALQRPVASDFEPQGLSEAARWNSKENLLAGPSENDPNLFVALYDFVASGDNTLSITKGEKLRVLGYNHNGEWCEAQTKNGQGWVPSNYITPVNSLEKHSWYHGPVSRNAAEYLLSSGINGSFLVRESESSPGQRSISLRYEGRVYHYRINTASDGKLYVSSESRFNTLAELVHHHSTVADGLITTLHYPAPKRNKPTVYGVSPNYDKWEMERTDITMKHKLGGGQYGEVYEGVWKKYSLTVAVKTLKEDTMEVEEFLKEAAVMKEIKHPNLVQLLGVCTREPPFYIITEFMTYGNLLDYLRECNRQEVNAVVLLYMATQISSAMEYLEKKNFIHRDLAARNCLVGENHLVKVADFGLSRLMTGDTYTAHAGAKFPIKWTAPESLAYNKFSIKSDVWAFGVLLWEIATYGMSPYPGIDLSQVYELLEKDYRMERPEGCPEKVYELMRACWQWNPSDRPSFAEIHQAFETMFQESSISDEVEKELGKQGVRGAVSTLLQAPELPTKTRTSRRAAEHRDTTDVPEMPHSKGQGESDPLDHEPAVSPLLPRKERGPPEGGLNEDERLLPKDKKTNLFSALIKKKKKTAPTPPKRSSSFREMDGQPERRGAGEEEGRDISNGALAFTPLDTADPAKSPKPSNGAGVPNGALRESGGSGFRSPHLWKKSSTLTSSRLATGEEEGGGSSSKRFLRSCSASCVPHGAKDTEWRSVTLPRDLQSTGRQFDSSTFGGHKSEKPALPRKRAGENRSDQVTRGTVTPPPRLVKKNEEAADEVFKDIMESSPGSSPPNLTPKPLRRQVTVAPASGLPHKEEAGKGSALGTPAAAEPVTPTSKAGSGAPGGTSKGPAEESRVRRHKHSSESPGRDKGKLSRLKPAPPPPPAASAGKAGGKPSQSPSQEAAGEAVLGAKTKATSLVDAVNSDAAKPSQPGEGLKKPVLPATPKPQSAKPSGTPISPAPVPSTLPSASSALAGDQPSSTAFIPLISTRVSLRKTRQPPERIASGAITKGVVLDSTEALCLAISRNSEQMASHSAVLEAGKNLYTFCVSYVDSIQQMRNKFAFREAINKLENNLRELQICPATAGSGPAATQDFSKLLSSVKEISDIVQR
Chain of Mitogen-activated protein kinase 7 (Q13164 whole entry): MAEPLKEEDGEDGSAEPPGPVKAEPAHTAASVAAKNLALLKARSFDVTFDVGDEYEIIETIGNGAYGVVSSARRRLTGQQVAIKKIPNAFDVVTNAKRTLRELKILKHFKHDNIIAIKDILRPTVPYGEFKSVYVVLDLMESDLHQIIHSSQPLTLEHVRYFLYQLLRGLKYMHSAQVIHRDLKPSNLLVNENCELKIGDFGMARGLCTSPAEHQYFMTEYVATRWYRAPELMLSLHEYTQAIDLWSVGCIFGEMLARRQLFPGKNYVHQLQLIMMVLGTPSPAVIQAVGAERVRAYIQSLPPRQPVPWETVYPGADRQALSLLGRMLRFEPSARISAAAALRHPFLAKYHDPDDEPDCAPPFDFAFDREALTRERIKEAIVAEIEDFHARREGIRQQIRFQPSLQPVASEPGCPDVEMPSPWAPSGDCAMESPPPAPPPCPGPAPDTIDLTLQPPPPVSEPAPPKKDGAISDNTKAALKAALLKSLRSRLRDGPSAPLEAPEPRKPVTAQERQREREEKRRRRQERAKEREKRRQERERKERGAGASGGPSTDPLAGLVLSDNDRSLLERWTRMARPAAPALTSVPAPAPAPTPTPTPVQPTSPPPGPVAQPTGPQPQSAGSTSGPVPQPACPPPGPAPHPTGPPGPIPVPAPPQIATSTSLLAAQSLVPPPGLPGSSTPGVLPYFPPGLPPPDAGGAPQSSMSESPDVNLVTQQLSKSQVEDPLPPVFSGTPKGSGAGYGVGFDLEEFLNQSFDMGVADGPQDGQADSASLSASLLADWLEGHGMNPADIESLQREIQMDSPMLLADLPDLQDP

- Kd [1]: 32.2 µM
- Kd [2]: > 30 µM (inactive)
- Kd [3]: > 30 µM (inactive)
- Kd [4]: > 30 µM (inactive)
- Kd [5]: > 30 µM (inactive)
- Kd [6]: > 30 µM (inactive)
- Kd [7]: 1.46 µM (active)
- Kd [8]: 99.2 µM
- Kd [9]: > 30 µM (inactive)
- Kd (Activated CDC42 kinase 1): > 30 µM (inactive)
SMILES: CN1C/C=C/CCOc2cccc(c2)-c2ccnc(n2)Nc2cccc(c2)C1 [ZOTIRACICLIB]
